Results published in ChEMBL document CHEMBL5108019, “Discovery of a novel Pleuromutilin derivative as anti-IPF lead compound via high-throughput assay” (Eur J Med Chem, 2022).
The source made the active and inactive calls. No cut-off for these calls is given here.

What was measured:
[1] = molecular target: Transforming growth factor beta-1 proprotein/Mothers against decapentaplegic homolog 3 (Mus musculus) (UniProt P04202+Q8BUN5); test: Inhibition of TGF-beta1/Smad3 signalling in TGF-beta1 treated mouse NIH3T3 cells transfected with (CAGA)12-Lux reporter gene assessed as suppressive ratio at 10 uM incubated for 18 hrs by luciferase based analysis relative to control; type: cell-based; parameters: scale not given: the % may be the effect or the level left
Chain of Transforming growth factor beta-1 proprotein/Mothers against decapentaplegic homolog 3 (Mus musculus) (P04202 279-390 limits assumed): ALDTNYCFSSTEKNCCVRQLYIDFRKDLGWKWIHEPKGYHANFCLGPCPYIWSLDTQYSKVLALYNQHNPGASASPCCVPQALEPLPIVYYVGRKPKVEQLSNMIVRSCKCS
Chain of Transforming growth factor beta-1 proprotein/Mothers against decapentaplegic homolog 3 (Mus musculus) (Q8BUN5 2-425 partner limits assumed): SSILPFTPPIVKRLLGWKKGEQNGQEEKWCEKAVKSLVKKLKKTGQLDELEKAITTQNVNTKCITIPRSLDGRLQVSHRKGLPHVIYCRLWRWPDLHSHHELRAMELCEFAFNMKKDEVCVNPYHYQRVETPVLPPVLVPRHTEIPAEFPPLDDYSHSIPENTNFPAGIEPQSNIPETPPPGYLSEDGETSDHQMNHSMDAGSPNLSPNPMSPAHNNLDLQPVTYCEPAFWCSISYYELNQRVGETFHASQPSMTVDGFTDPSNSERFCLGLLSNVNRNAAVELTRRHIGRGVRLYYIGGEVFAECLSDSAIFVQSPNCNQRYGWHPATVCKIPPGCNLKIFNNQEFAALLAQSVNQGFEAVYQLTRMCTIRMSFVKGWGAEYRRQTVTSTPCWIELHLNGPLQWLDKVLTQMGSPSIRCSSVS

Staphylococcus aureus = test: Antibacterial activity against Staphylococcus aureus assessed as bacterial growth inhibition incubated for 24 hrs; type: functional
Escherichia coli = test: Antibacterial activity against Escherichia coli assessed as bacterial growth inhibition incubated for 24 hrs; type: functional
Bacillus subtilis = test: Antibacterial activity against Bacillus subtilis assessed as bacterial growth inhibition incubated for 24 hrs; type: functional
[2] = Inhibition of TGF-beta1 induced cell proliferation in mouse MLg cells measured after 24 hrs by MTT assay; type: functional, cell-based
[3] = molecular target: Transforming growth factor beta-1 proprotein/Mothers against decapentaplegic homolog 3 (Mus musculus, UniProt P04202+Q8BUN5); test: Inhibition of TGF-beta1/Smad3 signalling in TGF-beta1 treated mouse NIH3T3 cells transfected with (CAGA)12-Lux reporter gene incubated for 18 hrs by luciferase based analysis; type: cell-based
Chain of Transforming growth factor beta-1 proprotein/Mothers against decapentaplegic homolog 3 (P04202 279-390 limits assumed): as the sequence (P04202 279-390 limits assumed) above
Chain of Transforming growth factor beta-1 proprotein/Mothers against decapentaplegic homolog 3 (Q8BUN5 2-425 limits assumed): as the sequence (Q8BUN5 2-425 partner limits assumed) above

[4] = Cmax in Sprague-Dawley rat at 10 mg/kg, iv measured for 12 hrs by LC-MS/MS analysis; type: ADME, organism-based; parameters: dose 10 mg/kg, time 12 hrs, route iv; details: in vivo
[5] = AUC (0 to t) in Sprague-Dawley rat at 10 mg/kg, iv measured for 12 hrs by LC-MS/MS analysis; type: ADME, organism-based; parameters: dose 10 mg/kg, time 12 hrs, route iv; details: in vivo
[6] = Tmax in Sprague-Dawley rat at 10 mg/kg, iv measured for 12 hrs by LC-MS/MS analysis; type: ADME, organism-based; details: in vivo
[7] = Half life in Sprague-Dawley rat at 10 mg/kg, iv measured for 12 hrs by LC-MS/MS analysis; type: ADME, organism-based; details: in vivo
[8] = Clearance in Sprague-Dawley rat at 10 mg/kg, iv measured for 12 hrs by LC-MS/MS analysis; type: ADME, organism-based; details: in vivo
[9] = Cmax in Sprague-Dawley rat at 100 mg/kg, po measured for 18 hrs by LC-MS/MS analysis; type: ADME, organism-based; parameters: dose 100 mg/kg, time 18 hrs, route po; details: in vivo
[10] = AUC (0 to t) in Sprague-Dawley rat at 100 mg/kg, po measured for 18 hrs by LC-MS/MS analysis; type: ADME, organism-based; parameters: dose 100 mg/kg, time 18 hrs, route po; details: in vivo
[11] = Tmax in Sprague-Dawley rat at 100 mg/kg, po measured for 18 hrs by LC-MS/MS analysis; type: ADME, organism-based; details: in vivo
[12] = Half life in Sprague-Dawley rat at 100 mg/kg, po measured for 18 hrs by LC-MS/MS analysis; type: ADME, organism-based; details: in vivo
[13] = Clearance in Sprague-Dawley rat at 100 mg/kg, po measured for 18 hrs by LC-MS/MS analysis; type: ADME, organism-based; details: in vivo
[14] = Oral bioavailability in Sprague-Dawley rat at 100 mg/kg measured for 18 hrs by LC-MS/MS analysis; type: ADME, organism-based; details: in vivo
[15] = Toxicity in C57BL/6 mouse assessed as animal survival at 1000 mg/kg, IG administered as single dose; type: organism-based; details: in vivo, po
[16] = Toxicity in C57BL/6 mouse assessed as animal survival at 500 mg/kg, IG administered once every day for 7 days; type: organism-based; details: in vivo, po, 168 h, time 7 day
[17] = Toxicity in C57BL/6 mouse assessed as animal survival at 500 mg/kg, po administered once every day for 30 days; type: organism-based; details: in vivo, 720 h, time 30 day
[18] = Toxicity in C57BL/6 mouse assessed as toxic symptoms at 500 mg/kg, po administered once every day for 30 days; type: organism-based; details: in vivo, 720 h, time 30 day
Mus musculus [19] = test: Antifibrotic activity against BLM-induced pulmonary fibrosis in C57BL/6 mouse model assessed as improvement in pulmonary alveolar structure damage at 100 to 200 mg/kg, po administered once daily starting from day 7 post BLM treatment and measured on day 14 by H and E staining based analysis; type: functional, organism-based; details: dose 100-200 mg/kg, time 14.0 day
Mus musculus [20] = test: Antifibrotic activity against BLM-induced pulmonary fibrosis in C57BL/6 mouse model assessed as improvement in forced vital capacity at 200 mg/kg, po administered once daily starting from day 7 post BLM treatment and measured on day 14 by plethysmography chamber based pulmonary function analysis; type: functional; details: time 14 day
Mus musculus [21] = test: Antifibrotic activity against BLM-induced pulmonary fibrosis in C57BL/6 mouse model assessed as improvement in dynamic compliance at 200 mg/kg, po administered once daily starting from day 7 post BLM treatment and measured on day 14 by plethysmography chamber based pulmonary function analysis; type: functional; details: time 14 day
Mus musculus [22] = test: Antifibrotic activity against BLM-induced pulmonary fibrosis in C57BL/6 mouse model assessed as improvement in inspiratory resistance at 200 mg/kg, po administered once daily starting from day 7 post BLM treatment and measured on day 14 by plethysmography chamber based pulmonary function analysis; type: functional; details: time 14 day
Mus musculus [23] = test: Antifibrotic activity against BLM-induced pulmonary fibrosis in C57BL/6 mouse model assessed as improvement in expiratory resistance at 200 mg/kg, po administered once daily starting from day 7 post BLM treatment and measured on day 14 by plethysmography chamber based pulmonary function analysis; type: functional, organism-based; details: time 14.0 day
Mus musculus [24] = test: (§1) Antifibrotic activity against BLM-induced pulmonary fibrosis in C57BL/6 mouse model assessed as reduction in fibrosis region at 200 mg/kg, po administered once daily starting from day 7 post BLM treatment and measured on day 14 by hematoxylin-eosin and Masson trichrome staining based analysis relative to control; type: functional, organism-based; details: time 14.0 day
Mus musculus [25] = test: as §1, with “100” for “200”; type: functional, organism-based; details: time 14.0 day
Mus musculus [26] = test: Antifibrotic activity against BLM-induced pulmonary fibrosis in C57BL/6 mouse model assessed as reduction in collagen content in lungs at 100 to 200 mg/kg, po administered once daily starting from day 7 post BLM treatment and measured on day 14 by hydroxyproline method; type: functional, organism-based; details: dose 100-200 mg/kg, time 14.0 day
Mus musculus [27] = test: Antifibrotic activity against BLM-induced pulmonary fibrosis in C57BL/6 mouse model assessed as reduction in extracellular matrix generation at 200 mg/kg, po administered once daily starting from day 7 post BLM treatment and measured on day 14 by hydroxyproline method; type: functional, organism-based; details: time 14.0 day
Pulmonary fibroblast [28] = test: Inhibition of TGF-beta1 induced cell stimulation in mouse pulmonary fibroblast cells assessed as reduction in alpha-SMA protein expression at 10 to 40 uM incubated for 24 hrs by Western blot analysis; type: functional, cell-based; details: dose 10-40 µM
Pulmonary fibroblast [29] = test: Inhibition of TGF-beta1 induced extracellular matrix development in mouse pulmonary fibroblast cells assessed as reduction in alpha-SMA mRNA expression at 10 to 40 uM incubated for 24 hrs by RT-PCR analysis; type: functional, cell-based; details: dose 10-40 µM
[30] = molecular target: Mothers against decapentaplegic homolog 3 (Mus musculus) (UniProt Q8BUN5); test: Inhibition of TGF-beta1 induced Smad3 phosphorylation in mouse pulmonary fibroblast cells at 10 to 40 uM incubated for 0.5 hrs by Western blot analysis; type: cell-based; details: dose 10-40 µM
Chain of Mothers against decapentaplegic homolog 3 (Mus musculus) (Q8BUN5 whole entry, looked up): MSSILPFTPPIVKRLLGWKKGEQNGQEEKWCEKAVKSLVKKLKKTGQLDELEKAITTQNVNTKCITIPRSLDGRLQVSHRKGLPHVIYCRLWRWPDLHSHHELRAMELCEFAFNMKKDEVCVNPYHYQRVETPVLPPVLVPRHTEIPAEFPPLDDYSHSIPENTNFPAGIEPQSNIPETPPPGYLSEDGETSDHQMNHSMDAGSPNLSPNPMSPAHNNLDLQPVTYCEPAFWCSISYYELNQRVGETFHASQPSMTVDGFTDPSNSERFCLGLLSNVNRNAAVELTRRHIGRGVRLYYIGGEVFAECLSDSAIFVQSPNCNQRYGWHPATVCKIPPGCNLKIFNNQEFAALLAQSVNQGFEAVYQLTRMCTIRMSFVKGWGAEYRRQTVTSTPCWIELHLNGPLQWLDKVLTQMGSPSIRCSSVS

## C=C[C@]1(C)C[C@@H](O)[C@]2(C)[C@H](C)CC[C@]3(C/C(=C\c4ccc(C(=O)NC5CCCCC5)cc4)C(=O)[C@H]32)[C@@H](C)[C@@H]1O
[1]
  Activity: 58.4%
Staphylococcus aureus
  MIC: > 1000 µg/mL
Escherichia coli
  MIC: > 1000 µg/mL
Bacillus subtilis
  MIC: > 1000 µg/mL
[2]
  IC50: 160 µM
[3]
  IC50: 60.3 µM
[4]
  Cmax: 2270 ng/mL
[5]
  AUC(0-t) at 12 h: 2900 ng·h/mL
[6]
  Tmax: 39.6 s
[7]
  half-life: 0.488 h
[8]
  clearance: 27.1 mL/min
[9]
  Cmax: 2160 ng/mL
[10]
  AUC(0-t) at 18 h: 17800 ng·h/mL
[11]
  Tmax: 3.33 h
[12]
  half-life: 9.21 h
[13]
  CL/F: 7.62 mL/min
[14]
  bioavailability: 61.2%
[15]
  Activity: Non-Toxic
[16]
  Activity: Non-Toxic
[17]
  Activity: Non-Toxic
[18]
  Activity: Non-Toxic
Mus musculus [19]
  Activity: Active
Mus musculus [20]
  Activity: 76.47%
Mus musculus [21]
  Activity: 38.85%
Mus musculus [22]
  Activity: 51.03%
Mus musculus [23]
  Activity: Active
Mus musculus [24]
  Activity: Active
Mus musculus [25]
  Activity: Active
Mus musculus [26]
  Activity: Active
Mus musculus [27]
  Activity: Active
Pulmonary fibroblast [28]
  inhibition: Active
Pulmonary fibroblast [29]
  inhibition: Active
[30]
  inhibition: Active
